The assay concerns the target PERK recombinant enzyme (cytoplasmic domain corresponding to residues 540-1115) (Homo sapiens (Human), UniProt Q9NZJ5). The assay is described as follows: PERK enzyme assay, Method 1: ADP-Glo Kinase Assay (quantification of ADP formed). The assay is classed as biochemical. To be noted: 52 microM ATP, 8 nM PERK, 300 microM elF2alpha peptide substrate, 60 minutes. The method, then:
The biochemical activity of compounds was determined by incubation with PERK recombinant enzyme (cytoplasmic domain corresponding to residues 540-1115) and elF2alpha peptide substrate (Aminoacid sequence: LLSELSRRRIRSINK—SEQ ID Nr: 1; purchased from American Peptide Company, product #341923). This was followed by:
Method 1: Quantification of the ADP Formed from the Kinase Reaction by ADP-Glo™ Kinase Assay (Promega Cat. 9102). Utra Pure ATP was Included into ADP-Glo™ Kinase Assay Kit. […]
After 60 minutes, an equal volume (15 microL) of ADP-Glo™ Reagent was added to each well to terminate the kinase reaction and deplete the remaining ATP. After 40 minutes, 30 microL of Kinase Detection Reagent is added, which simultaneously converts ADP to ATP and allows the newly synthesized ATP to be measured using a coupled luciferase/luciferin reaction. After further 40 minutes luminescence was read by ViewLux Instrument (Perkin Elmer). The data are analyzed by GraphPad Prism software which provides sigmoidal fittings of the curves for IC50 determination using a 4 parameter logistic equation: y=bottom+(top−bottom)/(1+10^((log IC50−x)*slope)) where x is the logarithm of the inhibitor concentration, y is the response; y starts at bottom and goes to top with a sigmoid shape. Method 2: Quantification of the Phosphorylated Product Formed from the Kinase Reaction in Presence of ATP (Aldrich, Cat #A2620-9).
(In general: ADP-Glo turns the ADP formed in a reaction into a luminescent signal.)

This note sets out measurements from US11491158B2, “N-(substituted-phenyl)-sulfonamide derivatives as kinase inhibitors” (Nerviano Medical Sciences S.R.L., priority 2016, dated 2022).

Sequence of PERK recombinant enzyme (cytoplasmic domain corresponding to residues 540-1115) (Q9NZJ5 540-1115): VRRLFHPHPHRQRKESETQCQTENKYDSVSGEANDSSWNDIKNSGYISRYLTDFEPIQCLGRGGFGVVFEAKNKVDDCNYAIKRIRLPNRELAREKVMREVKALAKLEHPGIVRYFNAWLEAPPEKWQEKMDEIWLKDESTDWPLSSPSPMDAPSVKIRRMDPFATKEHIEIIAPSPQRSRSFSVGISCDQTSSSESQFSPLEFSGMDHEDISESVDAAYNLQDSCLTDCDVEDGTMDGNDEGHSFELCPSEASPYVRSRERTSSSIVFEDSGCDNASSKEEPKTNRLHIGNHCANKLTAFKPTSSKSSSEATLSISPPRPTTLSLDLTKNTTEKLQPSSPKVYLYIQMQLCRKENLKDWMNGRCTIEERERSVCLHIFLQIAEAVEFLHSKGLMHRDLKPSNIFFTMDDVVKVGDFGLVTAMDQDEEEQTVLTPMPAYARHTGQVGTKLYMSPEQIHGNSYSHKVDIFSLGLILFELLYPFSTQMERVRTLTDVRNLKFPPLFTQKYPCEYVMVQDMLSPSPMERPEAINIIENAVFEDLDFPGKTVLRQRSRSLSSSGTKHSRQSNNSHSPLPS

For the compound `COc1ccc(S(=O)(=O)Nc2cccc(-c3csc4ccnc(N)c34)c2F)cc1C` [Cmpd 60, N-[3-(4-Amino-thieno[3,2-c]pyridin-3-yl)-2-fluoro-phenyl]-4-methoxy-3-methyl-benzenesulfonamide], the pIC50 result is reported as “C (pIC50 < 6.8)”.
